These results are taken from patent US20120046329A1, “MODULATORS OF NOD1 AND NOD2 SIGNALING, METHODS OF IDENTIFYING MODULATORS OF NOD1 AND NOD2 SIGNALING, AND USES THEREOF” (Sanford-Burnham Medical Research Institute, priority 2010, published 2012).

Assay [1] concerns TNF-α induced NF-κB. Kind of assay: TNF-α-induced NF-κB luciferase reporter counterscreen, HEK293T. In kind it is cell-based, human. The note with it: Homo sapiens, HEK-293T.
The target of assay [2] is NOD2 (Homo sapiens, UniProt Q9HC29). Kind of assay: NOD2 NF-κB luciferase reporter assay, HEK293T cells over-expressing NOD2. In kind it is cell-based. More on the design: expressed in transfected cells; host or cells: HEK293T NF-κB-luciferase cells, lentiviral transduction, sorted by EGFP. A general note: A reporter such as luciferase makes a cellular process visible.
NOD2, sequence (Q9HC29 whole entry): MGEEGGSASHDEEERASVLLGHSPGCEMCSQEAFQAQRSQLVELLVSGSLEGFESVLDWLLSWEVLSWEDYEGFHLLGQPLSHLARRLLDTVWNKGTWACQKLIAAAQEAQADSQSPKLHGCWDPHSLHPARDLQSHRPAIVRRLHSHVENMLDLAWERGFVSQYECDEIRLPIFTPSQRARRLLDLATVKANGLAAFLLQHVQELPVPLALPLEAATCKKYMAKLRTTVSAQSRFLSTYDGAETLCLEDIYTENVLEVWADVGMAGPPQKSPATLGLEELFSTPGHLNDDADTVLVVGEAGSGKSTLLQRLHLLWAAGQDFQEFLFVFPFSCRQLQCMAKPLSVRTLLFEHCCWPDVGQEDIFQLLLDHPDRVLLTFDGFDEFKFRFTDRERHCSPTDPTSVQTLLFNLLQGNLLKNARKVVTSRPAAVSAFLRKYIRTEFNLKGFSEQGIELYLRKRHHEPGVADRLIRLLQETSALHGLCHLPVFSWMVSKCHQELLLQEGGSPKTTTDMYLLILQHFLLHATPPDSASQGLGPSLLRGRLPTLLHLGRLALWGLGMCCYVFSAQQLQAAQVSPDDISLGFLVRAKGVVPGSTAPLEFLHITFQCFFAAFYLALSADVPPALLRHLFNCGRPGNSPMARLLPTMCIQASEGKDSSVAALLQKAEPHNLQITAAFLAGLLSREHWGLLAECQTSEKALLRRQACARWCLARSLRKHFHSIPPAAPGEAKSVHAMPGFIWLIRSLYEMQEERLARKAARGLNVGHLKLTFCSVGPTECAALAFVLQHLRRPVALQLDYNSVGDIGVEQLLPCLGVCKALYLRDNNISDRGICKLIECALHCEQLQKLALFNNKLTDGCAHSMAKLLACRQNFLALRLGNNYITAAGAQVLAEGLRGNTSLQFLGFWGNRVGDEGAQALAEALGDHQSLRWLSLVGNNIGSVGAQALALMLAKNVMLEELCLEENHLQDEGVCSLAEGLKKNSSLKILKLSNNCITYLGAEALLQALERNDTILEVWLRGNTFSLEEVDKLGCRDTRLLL
The target in assay [3] is T1, NOD1 (Homo sapiens, UniProt Q9Y239).
T1 sequence (Q9Y239 1-953): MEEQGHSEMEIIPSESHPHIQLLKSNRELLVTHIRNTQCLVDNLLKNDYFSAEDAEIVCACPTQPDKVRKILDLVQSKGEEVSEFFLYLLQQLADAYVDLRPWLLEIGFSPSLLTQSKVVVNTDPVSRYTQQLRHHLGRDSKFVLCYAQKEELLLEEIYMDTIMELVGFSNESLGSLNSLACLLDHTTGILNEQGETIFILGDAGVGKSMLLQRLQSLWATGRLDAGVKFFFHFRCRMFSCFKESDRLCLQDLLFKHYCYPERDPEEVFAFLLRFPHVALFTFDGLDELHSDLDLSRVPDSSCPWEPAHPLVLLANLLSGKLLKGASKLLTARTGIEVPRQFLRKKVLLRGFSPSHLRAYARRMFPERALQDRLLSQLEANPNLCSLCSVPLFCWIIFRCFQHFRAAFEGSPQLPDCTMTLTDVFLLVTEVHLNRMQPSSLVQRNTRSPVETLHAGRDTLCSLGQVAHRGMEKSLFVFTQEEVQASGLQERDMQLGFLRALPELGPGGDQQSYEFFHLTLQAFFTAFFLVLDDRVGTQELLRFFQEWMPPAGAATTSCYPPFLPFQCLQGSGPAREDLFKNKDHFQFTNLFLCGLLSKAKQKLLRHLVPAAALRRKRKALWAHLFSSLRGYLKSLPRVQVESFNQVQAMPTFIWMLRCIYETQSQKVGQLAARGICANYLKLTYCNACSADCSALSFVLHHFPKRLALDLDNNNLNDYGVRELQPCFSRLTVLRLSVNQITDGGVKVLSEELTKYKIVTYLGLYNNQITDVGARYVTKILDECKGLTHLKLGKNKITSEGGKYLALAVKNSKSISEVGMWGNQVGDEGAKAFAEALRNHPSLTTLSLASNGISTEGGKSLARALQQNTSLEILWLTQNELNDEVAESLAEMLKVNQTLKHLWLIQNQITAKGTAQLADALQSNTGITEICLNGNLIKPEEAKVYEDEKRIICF
Kind of assay: NOD1 NF-κB luciferase reporter assay, γ-tri-DAP-stimulated HEK293T cells. The note with it: for Effect on NOD-driven NF-κB reporter gene activity: data not shown.

The mark [4] stands for this setting: TNF-α-stimulated NF-κB luciferase, HEK293T, read-out: TNF-α IC50.

Like-named read-outs stand apart in the source and are kept apart here. Bounds are passed on as bounds.

For orientation: IC50 means the point on the concentration scale where inhibition reaches its midpoint. As to `Nc1nc2ccccc2n1S(=O)(=O)c1ccccc1` [Compound 4], the IC50 in assay [1] (read-out: TNF-α IC50(μM)) was more than 20 µM.

With `Nc1nc2ccccc2n1S(=O)(=O)c1ccc([N+](=O)[O-])cc1` [Compound 5], in assay [1] (read-out: TNF-α IC50(μM)), the IC50 is more than 20 µM.

On to `Cc1ccc(S(=O)(=O)n2cnc3ccccc32)cc1` [Compound 6], for which, in assay [1] (read-out: TNF-α IC50(μM)), the 50% inhibitory concentration (IC50) was more than 20 µM.

As for `Nc1nc2ccccc2n1S(=O)(=O)c1ccc(OC(F)(F)F)cc1` [Compound 11], the concentration for half-maximal inhibition (IC50) in assay [1] (setting [4]) and in assay [2] was more than 20 µM each time.

For `CC(C)c1ccc(S(=O)(=O)n2c(N)nc3ccccc32)cc1` [Compound 12], the IC50 in assay [1] (setting [4]) and in assay [2] was more than 20 µM each time.

Turning to `Nc1nc2ccccc2n1S(=O)(=O)c1ccc(F)cc1` [Compound 13], the IC50 in assay [1] (setting [4]) and in assay [2] was more than 20 µM throughout.

Turning to `Nc1nc2ccccc2n1S(=O)(=O)c1ccc(Cl)c(Cl)c1` [Compound 14], the half-inhibitory concentration (IC50) in assay [1] (setting [4]) and in assay [2] was more than 20 µM in each case.

In the case of `Nc1nc2ccccc2n1S(=O)(=O)c1cccs1` [Compound 16], the IC50 in assay [1] (setting [4]) was 6.6 µM; in assay [3], 11 µM; in assay [2] it was more than 25 µM.

For the compound `C=CCNC1=C2C[C@@H](C)C[C@H](OC)[C@H](O)[C@@H](C)/C=C(\C)[C@H](OC(N)=O)[C@@H](OC)C=C/C=C(\C)C(=O)NC(=CC1=O)C2=O` [Compound 17-AGG, reference compound], the “Effect on NOD-driven NF-κB reporter gene activity” value in assay [3] is reported as “suppress”.

In the case of `Nc1nc2ccccc2n1S(=O)(=O)c1ccc2c(c1)CCC2` [Compound 17], the results for the half-inhibitory concentration (IC50) in assay [1] (setting [4]), in assay [3] and in assay [2] were more than 25 µM, 0.8 µM and 0.6 µM, respectively.

For the compound `Cc1ccc(S(=O)(=O)n2c(N)nc3cc(C)ccc32)cc1` [Compound 18], the IC50 in assay [1] (setting [4]) was more than 25 µM; in assay [3] it was 9.3 µM; in assay [2], 15 µM.

As to `Cc1ccc(S(=O)(=O)n2c(N)nc3cc(C(F)(F)F)ccc32)cc1` [Compound 20], the IC50 in assay [1] (setting [4]) was found to be 2.3 µM; in assay [3], 1.6 µM; in assay [2], 4.7 µM.

Consider `Cc1ccc(S(=O)(=O)n2c(N)nc3ccc(C(F)(F)F)cc32)cc1` [Compound 21], for which the half-maximal inhibitory concentration (IC50) in assay [1] (setting [4]) came out at 12.3 µM; in assay [3] it was 3.9 µM; in assay [2], 10 µM.

With `Cc1ccc(S(=O)(=O)n2c(N)nc3cc(F)ccc32)cc1` [Compound 22], the IC50 was more than 25 µM in assay [1] (setting [4]), 1.8 µM in assay [3] and more than 25 µM in assay [2].

`Cc1ccc(S(=O)(=O)n2c(N)nc3ccc(F)cc32)cc1` [Compound 23]: the IC50 in assay [1] (setting [4]) was more than 25 µM; in assay [3], 6.2 µM; in assay [2], more than 25 µM.

Turning to `COc1ccc2c(c1)nc(N)n2S(=O)(=O)c1ccc(C)cc1` [Compound 24], the IC50 was more than 25 µM in assay [1] (setting [4]), 1.9 µM in assay [3] and 3.1 µM in assay [2].

In the case of `CCOC(=O)c1ccc2nc(N)n(S(=O)(=O)c3ccc(C)cc3)c2c1` [Compound 25], the IC50 in assay [1] (setting [4]) was more than 25 µM; in assay [3], 3 µM; in assay [2], 7.6 µM.

Turning to `Cc1ccc(S(=O)(=O)n2c(N)nc3c(N)cccc32)cc1` [Compound 26], the IC50 in assay [1] (setting [4]) was more than 25 µM; in assay [3] it was 17.5 µM; in assay [2], 12.8 µM.

Take `Cc1ccc(S(=O)(=O)n2c(CNC=O)nc3ccccc32)cc1` [Compound 27]: the values for the IC50 in assay [1] (setting [4]), in assay [3] and in assay [2] were 8.4 µM, 10.9 µM and 15.6 µM, respectively.

Regarding `Cc1ccc(S(=O)(=O)n2c(NCCCO)nc3ccccc32)cc1` [Compound 28], the IC50 in assay [1] (setting [4]) is more than 25 µM; in assay [3], 12.1 µM; in assay [2] it was more than 25 µM.

In the case of `Cc1cccc(S(=O)(=O)n2c(N)nc3ccccc32)c1` [Compound 29], the IC50 in assay [1] (setting [4]) is more than 100 µM; in assay [3], 3.8 µM.

On to `Nc1nc2ccccc2n1S(=O)(=O)c1cccc(Br)c1` [Compound 31], for which the IC50 in assay [1] (read-out: TNF-α IC50(μM)) was more than 100 µM; in assay [3], 3.5 µM.

For `Nc1nc2ccccc2n1S(=O)(=O)c1cccc(C(F)(F)F)c1` [Compound 32], the 50% inhibitory concentration (IC50) in assay [1] (setting [4]) is more than 100 µM; in assay [3] it was 12.4 µM.

As for `Nc1nc2ccccc2n1S(=O)(=O)c1cccc(OC(F)(F)F)c1` [Compound 33], the concentration for half-maximal inhibition (IC50) in assay [1] (setting [4]) was more than 100 µM; in assay [3], more than 25 µM.

Consider `CCCc1cccc(S(=O)(=O)n2c(N)nc3ccccc32)c1` [Compound 34], for which the IC50 in assay [1] (setting [4]) is more than 100 µM; in assay [3], 1.3 µM.

On to `CC(C)(C)c1cccc(S(=O)(=O)n2c(N)nc3ccccc32)c1` [Compound 35], for which the IC50 turned out to be 15.6 µM in assay [1] (setting [4]) and 3.3 µM in assay [3].

With `COc1cccc(S(=O)(=O)n2c(N)nc3ccccc32)c1` [Compound 36], the results for the IC50 in assay [1] (setting [4]) and in assay [3] were more than 100 µM and 14.5 µM, respectively.

Take `Nc1nc2ccccc2n1S(=O)(=O)c1cc(Cl)c(Cl)s1` [Compound 37]: the IC50 in assay [1] (setting [4]) is 18.4 µM; in assay [3], 2.2 µM.

As to `Nc1nc2ccccc2n1S(=O)(=O)c1ccc(-c2ccccc2)cc1` [Compound 39], the IC50 stood at 4.2 µM in assay [1] (read-out: TNF-α IC50(μM)) and 1.5 µM in assay [3].

Turning to `COc1ccc(-c2ccc(S(=O)(=O)n3c(N)nc4ccccc43)cc2)cc1` [Compound 40], the 50% inhibitory concentration (IC50) in assay [1] (setting [4]) came to 5.2 µM.

As to `COC1=C2C[C@@H](C)C[C@H](OC)[C@H](O)[C@@H](C)/C=C(\C)[C@H](OC(N)=O)[C@@H](OC)/C=C\C=C(/C)C(=O)NC(=CC1=O)C2=O` [geldanomycin, reference compound], the “Effect on NOD-driven NF-κB reporter gene activity” value in assay [3] was “suppress”.

For orientation: inhibition means how much of the control response was suppressed. For the compound `C[n+]1cc2c3c(ccc2c2ccc4cc5c(cc4c21)OCO5)OCO3` [sanguinarine, reference compound], in assay [3] (HEK-293T, read-out: Luciferase inhibition, hit cut-off), the inhibition at 4 µM was not below 50%.
